Patent publication US9333264B2, “Biocompatible polymeric nanoparticles degrade and release cargo in response to biologically relevant levels of hydrogen peroxide” (The Regents of the University of California, priority 2013, dated 2016)
Values belong to the molecule of their own block, whether it stands above or below them.

Columns and labels:
[1] = cited from earlier work
[2] = Effect of H2O2 on the fluorescence of Nile red; format: physicochemical; conditions: 72 h incubation with 1 mM hydrogen peroxide
Experimental: The fluorescence of the dye was quenched in aqueous environments, enabling use as a model compound to indicate small molecule release from the hydrophobic nanoparticle interior. Prior to the evaluation of controlled release from our materials, the stability of Nile Red fluorescence in hydrogen peroxide was tested to ensure that the fluorescence quenching observed is not a result of Nile Red exposure to hydrogen peroxide.
Nile red solutions of three different concentrations in acetone were prepared (10, 40, 160 ng/mL). Polymer 1 was dissolved in the Nile red solutions (polymer concentration in all Nile red solutions were constant at 125 μg/mL). Hydrogen peroxide was added to these solutions (concentration in Nile red solutions was constant at 1 mM). Changes in Nile red fluorescence were monitored over a 72 h period using the same instrument settings as reported previously. These experiments were run in duplicate.

dMPRO cells = assay: Extracellular hydrogen peroxide produced by neutrophils; format: cell-based, mouse; conditions: 1.6×10^6 dMPRO cells, after 6 h of PMA treatment
Experimental: Activated neutrophils generate high ROS. Extracellular hydrogen peroxide produced by neutrophils (differentiated mouse promyleocytes or dMPRO cells) with and without PMA (phorbol 12 myristate 13 acetate) stimulation was measured.
After 6 h of PMA treatment, 1.6×10^6 dMPRO cells produced 6.5 μM H2O2, while untreated cells produced 4.5 μM H2O2. These extracellular levels of H2O2 were much lower than the levels previously seen for Polymer 2, however the concentration of H2O2 inside neutrophil granules appear to be much higher. Fluorescein diacetate (FDA), a non-fluorescent molecule which is cleaved to fluorescein (Ex490/Em520) by cellular esterases, was chosen for the release assay.

Raw264.7 macrophages = assay: ApoTox-Glo assay of viability, cytotoxicity and apoptosis; conditions: staurosporine 5 μM for 5 h; Triton X-100 0.1% for 15 min
Experimental: In addition, this assay also measures caspase 3/7 activity as a readout for apoptosis (see, FIGS. 7A-7D). […] Staurosporine and 0.1% Triton-X 100 were used as positive controls for induction of apoptosis and cell death, respectively.
Raw264.7 cells were seeded on a 96-well plate at a density of 15000 cells per well. […] The particles were incubated for 5, 24 and 48 h.
Apoptosis (positive control) was induced by addition of staurosporine (5 μM final concentration), followed by incubation for at 37° C. for 5 h. Cytotoxicity (positive control) was induced by addition of triton X-100 (0.1% final concentration), followed by incubation at 37° C. for 15 min. Viability, cytotoxicity and apoptosis were measured using ApoTox-Glo™ assay (Promega) as per manufacturer's protocol. Datasets for each concentration and controls were collected in quadruplicates.

change of Nile Red fluorescence [2]: did not change significantly
Molecule: CCN(CC)c1ccc2nc3c4ccccc4c(=O)cc-3oc2c1 [Nile red]
solubility in aqueous media [1]: < 1 µg/mL

Molecule: CCCCCCCCCCCCCC(=O)O[C@@H]1[C@@H](C)[C@@]2(O)[C@@H](C=C(CO)C[C@]3(O)C(=O)C(C)=C[C@@H]23)[C@@H]2C(C)(C)[C@]12OC(C)=O [PMA, phorbol 12 myristate 13 acetate]
extracellular H2O2 produced (dMPRO cells): 6.5 µM

Molecule: CN[C@@H]1C[C@H]2O[C@@](C)([C@@H]1OC)n1c3ccccc3c3c4c(c5c6ccccc6n2c5c31)C(=O)NC4 [staurosporine]
apoptosis and cell viability, positive controls (Raw264.7 macrophages): apoptosis and loss of cell viability was observed

Molecule: Triton X-100
apoptosis and cell viability, positive controls (Raw264.7 macrophages): apoptosis and loss of cell viability was observed
